Source: patent publication US10626112B2, “Heterocyclic sulfonamide derivative and medicine comprising same” (EA PHARMA CO., LTD., priority 2014, dated 2020)

These compounds were tested against human TRPA1 (Homo sapiens (Human), UniProt O75762) (assay: Measurement of TRPA1 antagonist activity (1): intracellular calcium increase). Settings: 293T cells transfected with human TRPA1 expression plasmid; allylisothiocyanate 20 μM stimulation; intracellular calcium fluorescence; read-out: hTRPA1 IC50.
Format: cell-based
Outline: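 HEK293T cells transiently transfected with full-length human TRPA1, loaded with Calcium4 dye in HBSS/20 mM HEPES pH 7.2. Test compound preincubated 10 min, then allylisothiocyanate added at 20 μM final and fluorescence change followed for 5 min. IC50 from sigmoid fit of percent inhibition relative to agonist and buffer controls.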

human TRPA1, sequence (O75762 whole entry): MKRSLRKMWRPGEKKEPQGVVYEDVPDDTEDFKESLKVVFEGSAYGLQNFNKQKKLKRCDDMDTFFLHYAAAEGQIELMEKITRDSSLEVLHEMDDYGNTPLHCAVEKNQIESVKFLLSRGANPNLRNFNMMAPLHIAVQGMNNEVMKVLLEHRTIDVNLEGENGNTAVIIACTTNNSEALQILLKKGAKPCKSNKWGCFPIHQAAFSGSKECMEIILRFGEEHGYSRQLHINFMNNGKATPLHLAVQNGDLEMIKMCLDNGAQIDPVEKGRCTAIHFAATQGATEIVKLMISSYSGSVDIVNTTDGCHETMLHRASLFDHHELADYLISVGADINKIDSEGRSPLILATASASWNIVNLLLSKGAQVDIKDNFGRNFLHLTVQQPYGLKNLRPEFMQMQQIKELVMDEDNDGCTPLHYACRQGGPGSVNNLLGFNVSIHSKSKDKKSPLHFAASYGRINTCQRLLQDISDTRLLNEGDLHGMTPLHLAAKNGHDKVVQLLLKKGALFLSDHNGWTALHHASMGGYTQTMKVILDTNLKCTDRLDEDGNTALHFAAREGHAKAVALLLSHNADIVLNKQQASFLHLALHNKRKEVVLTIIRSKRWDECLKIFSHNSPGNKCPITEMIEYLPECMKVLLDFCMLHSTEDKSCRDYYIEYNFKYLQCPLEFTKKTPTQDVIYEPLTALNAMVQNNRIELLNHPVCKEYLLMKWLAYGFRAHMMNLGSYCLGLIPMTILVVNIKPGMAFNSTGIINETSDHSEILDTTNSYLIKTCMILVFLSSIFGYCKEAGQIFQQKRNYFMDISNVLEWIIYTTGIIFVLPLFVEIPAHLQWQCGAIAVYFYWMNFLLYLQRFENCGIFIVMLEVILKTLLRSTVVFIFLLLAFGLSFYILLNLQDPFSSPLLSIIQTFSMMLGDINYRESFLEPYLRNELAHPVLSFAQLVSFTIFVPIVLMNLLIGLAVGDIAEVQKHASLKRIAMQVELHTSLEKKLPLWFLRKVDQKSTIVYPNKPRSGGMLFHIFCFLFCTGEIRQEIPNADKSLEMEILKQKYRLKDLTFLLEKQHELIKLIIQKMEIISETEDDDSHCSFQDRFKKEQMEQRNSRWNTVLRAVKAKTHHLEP

| SMILES | IC50 [nM] |
| --- | --- |
| O=C(NCc1cncc(-c2ccc(C(F)(F)F)nc2)c1)[C@@H]1CCCN1S(=O)(=O)c1cc2ccccc2o1 [Example 86, (2S)-1-(benzofuran-2-ylsulfonyl)-N-[[5-[6-(trifluoromethyl)-3-pyridyl]-3-pyridyl]methyl]pyrrolidine-2-carboxamide] | 20 |
| O=C(NCc1cccc(-c2ccc(C(F)(F)F)nc2)c1)[C@@H]1[C@@H](O)CCN1S(=O)(=O)c1cc2cc(F)ccc2o1 [Example 93, (2S,3S)-1-(5-fluorobenzofuran-2-yl)sulfonyl-3-hydroxy-N-[[3-[6-(trifluoromethyl)-3-pyridyl]phenyl]methyl]pyrrolidine-2-carboxamide] | 23 |
| O=C(NCc1cccc(-c2ccc(C(F)(F)F)cn2)c1)[C@@H]1[C@@H](O)CCN1S(=O)(=O)c1cc2cc(F)ccc2o1 [Example 94, (2S,3S)-1-(5-fluorobenzofuran-2-yl)sulfonyl-3-hydroxy-N-[[3-[5-(trifluoromethyl)-2-pyridyl]phenyl]methyl]pyrrolidine-2-carboxamide] | 11 |
| CN(C)c1cc(-c2cccc(CNC(=O)[C@@H]3CCCN3S(=O)(=O)c3cc4cc(F)ccc4o3)c2)ccn1 [Example 96, (2S)-N-[[3-[2-(dimethylamino)-4-pyridyl]phenyl]methyl]-1-(5-fluorobenzofuran-2-yl)sulfonyl-pyrrolidine-2-carboxamide] | 250 |
| O=C(NCc1ccnc(-c2ccc(C(F)(F)F)cc2)c1)[C@@H]1CC(F)(F)CN1S(=O)(=O)c1cc2cc(F)ccc2o1 [Example 99, (2S)-4,4-difluoro-1-(5-fluorobenzofuran-2-yl)sulfonyl-N-[[2-[4-(trifluoromethyl)phenyl]-4-pyridyl]methyl]pyrrolidine-2-carboxamide] | 13 |
| C[C@H](NS(=O)(=O)c1cc2ccccc2o1)C(=O)NCc1cccc(-c2ccc(C(F)(F)F)nc2)c1 [Example 101, (2S)-2-(benzofuran-2-ylsulfonylamino)-N-[[3-[6-(trifluoromethyl)-3-pyridyl]phenyl]methyl]propanamide] | 27 |
| C[C@H](NS(=O)(=O)c1cc2ccccc2o1)C(=O)NCc1cccc(-c2ccc(C(F)(F)F)cn2)c1 [Example 102, (2S)-2-(benzofuran-2-ylsulfonylamino)-N-[[3-[5-(trifluoromethyl)-2-pyridyl]phenyl]methyl]propanamide] | 28 |
| C[C@H](NS(=O)(=O)c1cc2ccccc2o1)C(=O)NCc1ccnc(-c2ccc(C(F)(F)F)cc2)c1 [Example 103, (2S)-2-(benzofuran-2-ylsulfonylamino)-N-[[2-[4-(trifluoromethyl)phenyl]-4-pyridyl]methyl]propanamide] | 56 |
| C[C@H](NS(=O)(=O)c1cc2ccccc2o1)C(=O)NCc1cc(-c2ccc(C(F)(F)F)cc2)ncn1 [Example 104, (2S)-2-(benzofuran-2-ylsulfonylamino)-N-[[6-[4-(trifluoromethyl)phenyl]pyrimidin-4-yl]methyl]propanamide] | 14 |
| C[C@H](NS(=O)(=O)c1cc2ccccc2o1)C(=O)NCc1cc(-c2ccc(C(F)(F)F)nc2)ccn1 [Example 105, (2S)-2-(benzofuran-2-ylsulfonylamino)-N-[[4-[6-(trifluoromethyl)-3-pyridyl]-2-pyridyl]methyl]propanamide] | 68 |
| C[C@H](NS(=O)(=O)c1cc2cc(F)ccc2o1)C(=O)NCc1cccc(-c2ccc(C(F)(F)F)nc2)c1 [Example 106, (2S)-2-[(5-fluorobenzofuran-2-yl)sulfonylamino]-N-[[3-[6-(trifluoromethyl)-3-pyridyl]phenyl]methyl]propanamide] | 10 |
| C[C@H](NS(=O)(=O)c1cc2cc(F)ccc2o1)C(=O)NCc1cccc(-c2ccc(C(F)(F)F)cn2)c1 [Example 107, (2S)-2-[(5-fluorobenzofuran-2-yl)sulfonylamino]-N-[[3-[5-(trifluoromethyl)-2-pyridyl]phenyl]methyl]propanamide] | 6.9 |
| C[C@H](NS(=O)(=O)c1cc2cc(F)ccc2o1)C(=O)NCc1ccnc(-c2ccc(C(F)(F)F)cc2)c1 [Example 108, (2S)-2-[(5-fluorobenzofuran-2-yl)sulfonylamino]-N-[[2-[4-(trifluoromethyl)phenyl]-4-pyridyl]methyl]propanamide] | 13 |
| C[C@H](NS(=O)(=O)c1cc2cc(F)ccc2o1)C(=O)NCc1cc(-c2ccc(C(F)(F)F)nc2)ccn1 [Example 110, (2S)-2-[(5-fluorobenzofuran-2-yl)sulfonylamino]-N-[[4-[6-(trifluoromethyl)-3-pyridyl]-2-pyridyl]methyl]propanamide] | 17 |
| Cc1ccc2oc(S(=O)(=O)N3CCC[C@H]3C(=O)NCc3cccc(-c4ccc(C(F)(F)F)nc4)c3)cc2c1 [Example 111, (2S)-1-(5-methylbenzofuran-2-yl)sulfonyl-N-[[3-[6-(trifluoromethyl)-3-pyridyl]phenyl]methyl]pyrrolidine-2-carboxamide] | 130 |
| O=C(NCc1ccnc(-c2ccccc2)c1)[C@@H]1CCCN1S(=O)(=O)c1cc2ccccc2o1 [Example 112, (2S)-1-(benzofuran-2-ylsulfonyl)-N-[(2-phenyl-4-pyridyl)methyl]pyrrolidine-2-carboxamide] | 270 |
| O=C(NCc1ccnc(-c2cccc(F)c2)c1)[C@@H]1CCCN1S(=O)(=O)c1cc2ccccc2o1 [Example 113, (2S)-1-(benzofuran-2-ylsulfonyl)-N-[[2-(3-fluorophenyl)-4-pyridyl]methyl]pyrrolidine-2-carboxamide] | 120 |
| O=C(NCc1ccnc(-c2ccc(F)cc2)c1)[C@@H]1CCCN1S(=O)(=O)c1cc2ccccc2o1 [Example 114, (2S)-1-(benzofuran-2-ylsulfonyl)-N-[[2-(4-fluorophenyl)-4-pyridyl]methyl]pyrrolidine-2-carboxamide] | 32 |

Stronger by IC50, values ahead:

| IC50 [nM] | SMILES |
| --- | --- |
| 5.4 | O=C(NCc1ccnc(-c2ccc(C(F)(F)F)cc2)c1)[C@@H]1[C@@H](O)CCN1S(=O)(=O)c1cc2cc(F)ccc2o1 [Example 95, (2S,3S)-1-(5-fluorobenzofuran-2-yl)sulfonyl-3-hydroxy-N-[[2-[4-(trifluoromethyl)phenyl]-4-pyridyl]methyl]pyrrolidine-2-carboxamide] |
| 4.7 | C[C@H](NS(=O)(=O)c1cc2cc(F)ccc2o1)C(=O)NCc1cc(-c2ccc(C(F)(F)F)cc2)ncn1 [Example 109, (2S)-2-[(5-fluorobenzofuran-2-yl)sulfonylamino]-N-[[6-[4-(trifluoromethyl)phenyl]pyrimidin-4-yl]methyl]propanamide] |
| 4 | O=C(NCc1ccnc(-c2ccc(C(F)(F)F)cc2)c1)[C@@H]1CCCN1S(=O)(=O)c1cc2c(F)cccc2o1 [Example 97, (2S)-1-(4-fluorobenzofuran-2-yl)sulfonyl-N-[[2-[4-(trifluoromethyl)phenyl]-4-pyridyl]methyl]pyrrolidine-2-carboxamide] |
| 2.4 | O=C(NCc1ccnc(-c2ccc(C(F)(F)F)cc2)c1)[C@@H]1CCCN1S(=O)(=O)c1cc2ccccc2o1 [Example 115, (2S)-1-(benzofuran-2-ylsulfonyl)-N-[[2-[4-(trifluoromethyl)phenyl]-4-pyridyl]methyl]pyrrolidine-2-carboxamide] |
| 2.2 | O=C(NCc1cccc(-c2ccc(C(F)(F)F)nc2)c1)[C@@H]1CCCN1S(=O)(=O)c1cc2c(F)cccc2o1 [Example 92, (2S)-1-(4-fluorobenzofuran-2-yl)sulfonyl-N-[[3-[6-(trifluoromethyl)-3-pyridyl]phenyl]methyl]pyrrolidine-2-carboxamide] |
| 1.6 | O=C(NCc1cccc(-c2ccc(C(F)(F)F)nc2)c1)[C@@H]1CCN1S(=O)(=O)c1cc2cc(F)ccc2o1 [Example 100, (2S)-1-(5-fluorobenzofuran-2-yl)sulfonyl-N-[[3-[6-(trifluoromethyl)-3-pyridyl]phenyl]methyl]azetidine-2-carboxamide] |
| 1.2 | O=C(NCc1cccc(-c2ccc(C(F)(F)F)cn2)c1)[C@@H]1CCCN1S(=O)(=O)c1cc2ccccc2o1 [Example 80, (2S)-1-(benzofuran-2-ylsulfonyl)-N-[[3-[5-(trifluoromethyl)-2-pyridyl]phenyl]methyl]pyrrolidine-2-carboxamide] |
| 1.2 | O=C(NCc1cc(-c2ccc(C(F)(F)F)cc2)ncn1)[C@@H]1CCCN1S(=O)(=O)c1cc2ccccc2o1 [Example 84, (2S)-1-(benzofuran-2-ylsulfonyl)-N-[[6-[4-(trifluoromethyl)phenyl]pyrimidin-4-yl]methyl]pyrrolidine-2-carboxamide] |
| 0.84 | O=C(NCc1cc(-c2ccc(C(F)(F)F)cc2)ncn1)[C@@H]1CCCN1S(=O)(=O)c1cc2cc(F)ccc2o1 [Example 90, (2S)-1-(5-fluorobenzofuran-2-yl)sulfonyl-N-[[6-[4-(trifluoromethyl)phenyl]pyrimidin-4-yl]methyl]pyrrolidine-2-carboxamide] |
| 0.76 | O=C(NCc1ccnc(-c2ccc(C(F)(F)F)cc2)c1)[C@@H]1C=CCN1S(=O)(=O)c1cc2cc(F)ccc2o1 [Example 98, (2S)-1-(5-fluorobenzofuran-2-yl)sulfonyl-N-[[2-[4-(trifluoromethyl)phenyl]-4-pyridyl]methyl]-2,5-dihydropyrrole-2-carboxamide] |
| 0.41 | O=C(NCc1cccc(-c2ccc(C(F)(F)F)nc2)c1)[C@@H]1CCCN1S(=O)(=O)c1cc2cc(F)ccc2o1 [Example 88, (2S)-1-(5-fluorobenzofuran-2-yl)sulfonyl-N-[[3-[6-(trifluoromethyl)-3-pyridyl]phenyl]methyl]pyrrolidine-2-carboxamide] |
| 0.38 | O=C(NCc1cccc(-c2ccc(C(F)(F)F)cn2)c1)[C@@H]1CCCN1S(=O)(=O)c1cc2cc(F)ccc2o1 [Example 89, (2S)-1-(5-fluorobenzofuran-2-yl)sulfonyl-N-[[3-[5-(trifluoromethyl)-2-pyridyl]phenyl]methyl]pyrrolidine-2-carboxamide] |
